Experimental data reported in patent publication US20150218172A1, “Pyrrolo[2,3-D]Pyrimidine Tropomyosin-Related Kinase Inhibitors” (PFIZER LIMITED, priority 2012, published 2015).

Target: T1, TrkA (Homo sapiens, UniProt P04629)
T1 construct: aa 441-796; His; purchased Invitrogen PV3144
Test: Isolated TRK enzyme assay (HTRF KinEASE-TK kit), PV3144 TrkA enzyme assay
Type: biochemical
Conditions: PV3144 TrkA enzyme assay, recombinant His-tagged cytoplasmic domain aa 441-796, 4 nM enzyme, 40 uM ATP; arithmetic mean where more than one reading; read-out: Trka enzyme (IC50)
How it was run: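 Recombinant His-tagged cytoplasmic domain of human TrkA, preactivated with ATP for 20 min, then 20 min with compound before biotinylated TK substrate (1 uM final) at room temperature. HTRF read at 665/620 nm; % inhibition normalised to reference-compound and DMSO controls, IC50 from sigmoid fit, mean of replicates.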

T1 sequence (P04629 441-796): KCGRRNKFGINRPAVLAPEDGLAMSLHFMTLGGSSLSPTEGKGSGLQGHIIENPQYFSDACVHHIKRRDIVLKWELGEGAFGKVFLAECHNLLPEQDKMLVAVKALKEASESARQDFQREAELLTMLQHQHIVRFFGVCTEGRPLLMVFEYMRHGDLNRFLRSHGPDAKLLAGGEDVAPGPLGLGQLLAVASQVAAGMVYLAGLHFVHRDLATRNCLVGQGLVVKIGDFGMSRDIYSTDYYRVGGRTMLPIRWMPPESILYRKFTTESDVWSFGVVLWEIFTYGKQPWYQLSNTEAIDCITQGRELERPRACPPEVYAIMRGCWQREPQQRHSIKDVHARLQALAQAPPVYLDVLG

Compound | IC50 [nM]
N#Cc1ccc(CC(=O)Nc2cc(C(=O)c3cn(C4CC4)c4ncncc34)ccn2)cc1 [Example 175, 2-(4-cyanophenyl)-N-{4-[(7-cyclopropyl-7H-pyrrolo[2,3-d]pyrimidin-5-yl)carbonyl]pyridin-2-yl}acetamide] | 407
CC(C)(CO)n1cc(C(=O)c2cc(NC(=O)Cn3cc(C(F)(F)F)nn3)ccn2)c2cnc(N)nc21 [Example 53, N-(2-{[2-amino-7-(1-hydroxy-2-methylpropan-2-yl)-7H-pyrrolo[2,3-d]pyrimidin-5-yl]carbonyl}pyridin-4-yl)-2-[4-(trifluoromethyl)-1H-1,2,3-triazol-1-yl]acetamide] | 216
CC(C)(CO)n1cc(C(=O)c2cc(NC(=O)Cc3ccc(Cl)cn3)ccn2)c2cnc(N)nc21 [Example 52, N-(2-{[2-amino-7-(1-hydroxy-2-methylpropan-2-yl)-7H-pyrrolo[2,3-d]pyrimidin-5-yl]carbonyl}pyridin-4-yl)-2-(5-chloropyridin-2-yl)acetamide] | 73.1
CC(C)(CO)n1cc(C(=O)c2ccc(C#N)c(NC(=O)Cc3ccc(Cl)cc3)c2)c2cnc(N)nc21 [Example 9, N-(5-{[2-amino-7-(1-hydroxy-2-methylpropan-2-yl)-7H-pyrrolo[2,3-d]pyrimidin-5-yl]carbonyl}-2-cyanophenyl)-2-(4-chlorophenyl)acetamide] | 11.1
Cc1ccnn1CC(=O)Nc1cc(C(=O)c2cn(C(C)C)c3ncncc23)ccn1 [Example 160, 2-(5-methyl-1H-pyrazol-1-yl)-N-(4-{[7-(propan-2-yl)-7H-pyrrolo[2,3-d]pyrimidin-5-yl]carbonyl}pyridin-2-yl)acetamide] | 86.3
Cc1cc(C(F)(F)F)nn1CC(=O)Nc1cc(C(=O)c2cn(CCO)c3ncncc23)ccn1 [Example 132, N-(4-{[7-(2-hydroxyethyl)-7H-pyrrolo[2,3-d]pyrimidin-5-yl]carbonyl}pyridin-2-yl)-2-[5-methyl-3-(trifluoromethyl)-1H-pyrazol-1-yl]acetamide] | 48.2
CC(C)(CO)n1cc(C(=O)c2ccc(C#N)c(NC(=O)Cc3ccc(Cl)cn3)c2)c2cnc(N)nc21 [Example 8, N-(5-{[2-amino-7-(1-hydroxy-2-methylpropan-2-yl)-7H-pyrrolo[2,3-d]pyrimidin-5-yl]carbonyl}-2-cyanophenyl)-2-(5-chloropyridin-2-yl)acetamide] | 32
CC(C)c1cn(CC(=O)Nc2ccnc(C(=O)c3cn([C@@H](C)CO)c4ncncc34)c2)nn1 [Example 29, N-[2-({7-[(2S)-1-hydroxypropan-2-yl]-7H-pyrrolo[2,3-d]pyrimidin-5-yl}carbonyl)pyridin-4-yl]-2-[4-(propan-2-yl)-1H-1,2,3-triazol-1-yl]acetamide] | 74.2
Cc1nccn1CC(=O)Nc1cc(C(=O)c2cn(C(C)C)c3ncncc23)ccn1 [Example 162, 2-(2-methyl-1H-imidazol-1-yl)-N-(4-{[7-(propan-2-yl)-7H-pyrrolo[2,3-d]pyrimidin-5-yl]carbonyl}pyridin-2-yl)acetamide] | 9800
CC(C)(CO)n1cc(C(=O)c2cc(NC(=O)Cc3ccc(C#N)cc3)ccn2)c2cnc(N)nc21 [Example 51, N-(2-{[2-amino-7-(1-hydroxy-2-methylpropan-2-yl)-7H-pyrrolo[2,3-d]pyrimidin-5-yl]carbonyl}pyridin-4-yl)-2-(4-cyanophenyl)acetamide] | 78.7
CC(C)n1cc(C(=O)c2ccnc(NC(=O)Cc3ccccc3Cl)c2)c2cncnc21 [Example 159, 2-(2-chlorophenyl)-N-(4-{[7-(propan-2-yl)-7H-pyrrolo[2,3-d]pyrimidin-5-yl]carbonyl}pyridin-2-yl)acetamide] | 53.6
CC(C)n1cc(C(=O)c2cc(NC(=O)Cn3ccc(C(F)(F)F)n3)ccn2)c2cnc(N)nc21 [Example 85, N-(2-{[2-amino-7-(propan-2-yl)-7H-pyrrolo[2,3-d]pyrimidin-5-yl]carbonyl}pyridin-4-yl)-2-[3-(trifluoromethyl)-1H-pyrazol-1-yl]acetamide] | 54.1
O=C(Cc1ccc(Cl)cc1Cl)Nc1ccnc(C(=O)c2cn(C(CO)CO)c3ncncc23)c1 [Example 95, 2-(2,4-dichlorophenyl)-N-(2-{[7-(1,3-dihydroxypropan-2-yl)-7H-pyrrolo[2,3-d]pyrimidin-5-yl]carbonyl}pyridin-4-yl)acetamide] | 146
Cc1cc(C)n(CC(=O)Nc2cc(C(=O)c3cn(C(C)C)c4ncncc34)ccn2)n1 [Example 152, 2-(3,5-dimethyl-1H-pyrazol-1-yl)-N-(4-{[7-(propan-2-yl)-7H-pyrrolo[2,3-d]pyrimidin-5-yl]carbonyl}pyridin-2-yl)acetamide] | 71.2

Further lines, results first:

IC50 [nM] | Compound
5.27 | CC(C)(C)n1cc(C(=O)c2cc(NC(=O)Cc3ccc(Cl)cn3)ccn2)c2cncnc21 [Example 39, N-{2-[(7-tert-butyl-7H-pyrrolo[2,3-d]pyrimidin-5-yl)carbonyl]pyridin-4-yl}-2-(5-chloropyridin-2-yl)acetamide]
96.6 | CC(CO)(CO)n1cc(C(=O)c2cc(NC(=O)Cc3ccc(Cl)cc3)ccn2)c2cncnc21 [Example 102, 2-(4-chlorophenyl)-N-(2-{[7-(1,3-dihydroxy-2-methylpropan-2-yl)-7H-pyrrolo[2,3-d]pyrimidin-5-yl]carbonyl}pyridin-4-yl)acetamide]
72.9 | CC1(n2cc(C(=O)c3cc(NC(=O)Cc4ccc(C(F)(F)F)cc4)ccn3)c3cncnc32)COC1 [Example 167, N-(2-{[7-(3-methyloxetan-3-yl)-7H-pyrrolo[2,3-d]pyrimidin-5-yl]carbonyl}pyridin-4-yl)-2-[4-(trifluoromethyl)phenyl]acetamide]
15.7 | CC(C)(C)n1cc(C(=O)c2cc(NC(=O)Cc3ccc(F)cc3)ccn2)c2cncnc21 [Example 43, N-{2-[(7-tert-butyl-7H-pyrrolo[2,3-d]pyrimidin-5-yl)carbonyl]pyridin-4-yl}-2-(4-fluorophenyl)acetamide]
155 | CC1(n2cc(C(=O)c3cc(NC(=O)Cc4ccc(Cl)cn4)ccn3)c3cncnc32)COC1 [Example 168, 2-(5-chloropyridin-2-yl)-N-(2-{[7-(3-methyloxetan-3-yl)-7H-pyrrolo[2,3-d]pyrimidin-5-yl]carbonyl}pyridin-4-yl)acetamide]
72.2 | C[C@@H](CO)n1cc(C(=O)c2cc(NC(=O)Cc3ccc(C(F)(F)F)cc3)ccn2)c2cncnc21 [Example 17, N-[2-({7-[(2S)-1-hydroxypropan-2-yl]-7H-pyrrolo[2,3-d]pyrimidin-5-yl}carbonyl)pyridin-4-yl]-2-[4-(trifluoromethyl)phenyl]acetamide]
268 | CC(C)n1cc(C(=O)c2cc(NC(=O)Cc3cccc(S(C)(=O)=O)c3)ccn2)c2cncnc21 [Example 81, 2-[3-(methylsulfonyl)phenyl]-N-(2-{[7-(propan-2-yl)-7H-pyrrolo[2,3-d]pyrimidin-5-yl]carbonyl}pyridin-4-yl)acetamide]
13.6 | CC(CO)(CO)n1cc(C(=O)c2cc(NC(=O)Cc3ccc(C(F)(F)F)cc3)ccn2)c2cncnc21 [Example 103, N-(2-{[7-(1,3-dihydroxy-2-methylpropan-2-yl)-7H-pyrrolo[2,3-d]pyrimidin-5-yl]carbonyl}pyridin-4-yl)-2-[4-(trifluoromethyl)phenyl]acetamide]
